In US20130065818A1, “Arylamide Compounds And Compositions And Uses Thereof” (POLYMEDIX, priority 2006, published 2013):
≈ marks a conversion by molar mass, not a printed value. Read-outs that look alike come from different tables or passages of the source.

What was measured:
Pseudomonas aeruginosa = assay: MIC, 25 ocular isolates, broth microdilution (Example 8); format: cell-based
Experimental: (§1) • Mueller-Hinton Broth in tubes was inoculated with 25 ocular isolates of Staphylococcus aureus fluoroquinolone-susceptible, Staphylococcus aureus fluoroquinolone-resistant, Staphylococcus epidermidis (Coagulase-negative Staphylococcus) fluoroquinolone-susceptible, Staphylococcus epidermidis (Coagulase-negative Staphylococcus) fluoroquinolone-resistant, Pseudomonas aeruginosa and Serratia marcescens, plus two controls (Staphylococcus aureus and E. coli) and incubated at 37° C. overnight on a shaker set at 250 rpm.
(§2) On the day of testing, a 640 μg/ml (1280 μg/ml for Serratia marcescens and Pseudomonas aeruginosa) concentration was prepared from a 1% stock solution in 0.01% acetic acid, 0.2% BSA in polypropylene tubes.
(§3) Serial doubling dilutions in 0.01% acetic acid, 0.2% BSA in 96 well polypropylene plates, which are used as reservoirs for the inoculation of the test plates, were carried out to obtain serial dilutions of test agents at 10 times the required test concentrations: 640, 320, 160, 80, 40, 20, 10, 5, 2.5, 1.25, and 0.625 μg/ml (1280, 640, 320, 160, 80, 40, 20, 10, 5, 2.5, and 1.25 μg/ml for Serratia marcescens and Pseudomonas aeruginosa).
(§4) Ten μl of diluted 10×test agents was added to each well of one row of the 96 well polypropylene plates from column 2 to column 12 (column 1 is a control for bacteria alone, with no peptide). Test agent concentrations in columns 2-12 were as follows: 64, 32, 16, 8, 4, 2, 1, 0.5, 0.25, 0.125, and 0.0625 μg/ml (128, 64, 32, 16, 8, 4, 2, 1, 0.5, 0.25, and 0.125 μg/ml for Serratia marcescens and Pseudomonas aeruginosa). The same peptide was in each of the 8 rows. One plate contained dilutions of one test agent and 8 bacterial isolates.
(§5) On the day of testing, the overnight bacterial broth cultures of Staphylococcus aureus fluoroquinolone-susceptible, Staphylococcus aureus fluoroquinolone-resistant, Staphylococcus epidermidis (Coagulase-negative Staphylococcus) fluoroquinolone-susceptible, Staphylococcus epidermidis (Coagulase-negative Staphylococcus) fluoroquinolone-resistant, Serratia marcescens, and Pseudomonas aeruginosa, plus two controls (Staphylococcus aureus and E. coli) were diluted in 5 ml of trypticase soy broth to yield turbidity equal to a 0.5 McFarland standard. The final inoculum for MIC testing for Staphylococcus aureus fluoroquinolone-susceptible, Staphylococcus aureus fluoroquinolone-resistant, Staphylococcus epidermidis (Coagulase-negative Staphylococcus) fluoroquinolone-susceptible, Staphylococcus epidermidis (Coagulase-negative Staphylococcus) fluoroquinolone-resistant, Serratia marcescens, and Pseudomonas aeruginosa was achieved by placing 0.05 ml of the turbidity adjusted sample to 5 ml of Mueller-Hinton broth.
(§6) Ninety μl of the bacterial suspensions was dispensed in each well from column 1 to column 12. Each bacterial isolate was placed in one row of a 96 well polypropylene plate containing the test agents. The plates were placed on shaker at 15 minutes at room temperature, and then incubated at 37° C. overnight. MICs were determined visually as the lowest concentration of drug that inhibits visible bacterial growth.

[1] = test system: Staphylococcus epidermidis (Coagulase-negative Staphylococcus) fluoroquinolone-resistant; assay: as above; format: cell-based
Experimental: as §1, §2, §3, §4, §5, §6

N=C(N)NCCCCC(=O)Nc1cc(C(F)(F)F)cc(NC(=O)c2cc(C(=O)Nc3cc(C(F)(F)F)cc(NC(=O)CCCCNC(=N)N)c3O[C@@H]3CCNC3)ncn2)c1O[C@@H]1CCNC1 [Oligomer 4]
MIC50 (Pseudomonas aeruginosa; 25 isolates, Row 13): 4 µg/mL (≈ 4.27 µM)
Range of MICs (Pseudomonas aeruginosa; 25 isolates, Summary of Results, >128 was Replaced with 256): 0.5 to 8 µg/mL
MIC (Pseudomonas aeruginosa; Pseudomonas aeruginosa, 25 ocular isolates, read-out: Median MIC): 4 µg/mL (≈ 4.27 µM)
MIC (Pseudomonas aeruginosa; Pseudomonas aeruginosa, isolate 1—K1673, read-out: MIC): 2 µg/mL (≈ 2.13 µM)
MIC (Pseudomonas aeruginosa; Pseudomonas aeruginosa, isolate 2—K1668, read-out: MIC): 2 µg/mL (≈ 2.13 µM)
MIC (Pseudomonas aeruginosa; Pseudomonas aeruginosa, isolate 3—K1662, read-out: MIC): 2 µg/mL (≈ 2.13 µM)
MIC (Pseudomonas aeruginosa; Pseudomonas aeruginosa, isolate 4—K1657, read-out: MIC): 2 µg/mL (≈ 2.13 µM)
MIC (Pseudomonas aeruginosa; Pseudomonas aeruginosa, isolate 5—K1651, read-out: MIC): 4 µg/mL (≈ 4.27 µM)
MIC (Pseudomonas aeruginosa; Pseudomonas aeruginosa, isolate 6—K1649, read-out: MIC): 4 µg/mL (≈ 4.27 µM)
MIC (Pseudomonas aeruginosa; Pseudomonas aeruginosa, isolate 7—K1564, read-out: MIC): 8 µg/mL (≈ 8.54 µM)
MIC (Pseudomonas aeruginosa; Pseudomonas aeruginosa, isolate 8—K1636, read-out: MIC): 0.5 µg/mL (≈ 0.534 µM)
MIC (Pseudomonas aeruginosa; Pseudomonas aeruginosa, isolate 9—K1634, read-out: MIC): 2 µg/mL (≈ 2.13 µM)
MIC (Pseudomonas aeruginosa; Pseudomonas aeruginosa, isolate 10—K1633, read-out: MIC): 4 µg/mL (≈ 4.27 µM)
MIC (Pseudomonas aeruginosa; Pseudomonas aeruginosa, isolate 11—K1632, read-out: MIC): 4 µg/mL (≈ 4.27 µM)
MIC (Pseudomonas aeruginosa; Pseudomonas aeruginosa, isolate 12—K1631, read-out: MIC): 8 µg/mL (≈ 8.54 µM)
MIC (Pseudomonas aeruginosa; Pseudomonas aeruginosa, isolate 13—K1629, read-out: MIC): 4 µg/mL (≈ 4.27 µM)
MIC (Pseudomonas aeruginosa; Pseudomonas aeruginosa, isolate 14—K1627, read-out: MIC): 2 µg/mL (≈ 2.13 µM)
MIC (Pseudomonas aeruginosa; Pseudomonas aeruginosa, isolate 15—K1626, read-out: MIC): 8 µg/mL (≈ 8.54 µM)
MIC (Pseudomonas aeruginosa; Pseudomonas aeruginosa, isolate 16—K1625, read-out: MIC): 4 µg/mL (≈ 4.27 µM)
MIC (Pseudomonas aeruginosa; Pseudomonas aeruginosa, isolate 17—K1562, read-out: MIC): 4 µg/mL (≈ 4.27 µM)
MIC (Pseudomonas aeruginosa; Pseudomonas aeruginosa, isolate 18—K1613, read-out: MIC): 4 µg/mL (≈ 4.27 µM)
MIC (Pseudomonas aeruginosa; Pseudomonas aeruginosa, isolate 19—K1553, read-out: MIC): 2 µg/mL (≈ 2.13 µM)
MIC (Pseudomonas aeruginosa; Pseudomonas aeruginosa, isolate 20—K1594, read-out: MIC): 2 µg/mL (≈ 2.13 µM)
MIC (Pseudomonas aeruginosa; Pseudomonas aeruginosa, isolate 21—K1588, read-out: MIC): 4 µg/mL (≈ 4.27 µM)
MIC (Pseudomonas aeruginosa; Pseudomonas aeruginosa, isolate 22—K1554, read-out: MIC): 4 µg/mL (≈ 4.27 µM)
MIC (Pseudomonas aeruginosa; Pseudomonas aeruginosa, isolate 23—K1580, read-out: MIC): 2 µg/mL (≈ 2.13 µM)
MIC (Pseudomonas aeruginosa; Pseudomonas aeruginosa, isolate 24—K1577, read-out: MIC): 2 µg/mL (≈ 2.13 µM)
MIC (Pseudomonas aeruginosa; Pseudomonas aeruginosa, isolate 25—K1576, read-out: MIC): 4 µg/mL (≈ 4.27 µM)
MIC (Pseudomonas aeruginosa; Pseudomonas aeruginosa, n=25 per group, read-out: Median MIC): 4 µg/mL (≈ 4.27 µM)
MIC50 (Pseudomonas aeruginosa; Pseudomonas aeruginosa, 25 isolates, Summary of Results, read-out: MIC50): 4 µg/mL (≈ 4.27 µM)
MIC90 (Pseudomonas aeruginosa; Pseudomonas aeruginosa, 25 isolates, Summary of Results, read-out: MIC90): 4 µg/mL (≈ 4.27 µM)
MIC (Pseudomonas aeruginosa; Pseudomonas aeruginosa, 25 isolates, Summary of Results, read-out: Median MIC): 4 µg/mL (≈ 4.27 µM)
MIC50 (Pseudomonas aeruginosa; n=25 per group): 4 µg/mL (≈ 4.27 µM)
MIC90 (Pseudomonas aeruginosa; n=25 per group): 4 µg/mL (≈ 4.27 µM)
Range of MICs (Pseudomonas aeruginosa; n=25 per group): 0.5 to 8 µg/mL
MIC, sorted list for MIC50 and MIC90 Determinations (QRSE-A) ([1]; 25 isolates sorted ascending, Row 1-25, <0.0625 was Replaced with 0.03125): 0.25 µg/mL
MIC50 ([1]; 25 isolates, Row 13): 0.125 µg/mL (≈ 0.133 µM)
MIC90 ([1]; 25 isolates, Row 22): 0.25 µg/mL (≈ 0.267 µM)
Range of MICs ([1]; 25 isolates, Summary of Results, <0.0625 was Replaced with 0.03125): 0.03125 to 0.25 µg/mL
MIC ([1]; Staphylococcus epidermidis, 25 ocular isolates, read-out: Median MIC): ≤ 0.25 µg/mL
MIC ([1]; Staphylococcus epidermidis, isolate 1—E515, read-out: MIC): 0.125 µg/mL (≈ 0.133 µM)
MIC ([1]; Staphylococcus epidermidis, isolate 2—E514, read-out: MIC): < 0.0625 µg/mL
MIC ([1]; Staphylococcus epidermidis, isolate 3—E513, read-out: MIC): 0.125 µg/mL (≈ 0.133 µM)
MIC ([1]; Staphylococcus epidermidis, isolate 4—E510, read-out: MIC): < 0.0625 µg/mL
MIC ([1]; Staphylococcus epidermidis, isolate 5—E509, read-out: MIC): 0.125 µg/mL (≈ 0.133 µM)
MIC ([1]; Staphylococcus epidermidis, isolate 6—E508, read-out: MIC): 0.125 µg/mL (≈ 0.133 µM)
MIC ([1]; Staphylococcus epidermidis, isolate 7—E505, read-out: MIC): 0.125 µg/mL (≈ 0.133 µM)
MIC ([1]; Staphylococcus epidermidis, isolate 8—E503, read-out: MIC): 0.125 µg/mL (≈ 0.133 µM)
MIC ([1]; Staphylococcus epidermidis, isolate 9—E502, read-out: MIC): 0.125 µg/mL (≈ 0.133 µM)
MIC ([1]; Staphylococcus epidermidis, isolate 10—E499, read-out: MIC): 0.125 µg/mL (≈ 0.133 µM)
MIC ([1]; Staphylococcus epidermidis, isolate 11—E498, read-out: MIC): 0.125 µg/mL (≈ 0.133 µM)
MIC ([1]; Staphylococcus epidermidis, isolate 12—E494, read-out: MIC): < 0.0625 µg/mL
MIC ([1]; Staphylococcus epidermidis, isolate 13—E493, read-out: MIC): 0.125 µg/mL (≈ 0.133 µM)
MIC ([1]; Staphylococcus epidermidis, isolate 14—E485, read-out: MIC): 0.125 µg/mL (≈ 0.133 µM)
MIC ([1]; Staphylococcus epidermidis, isolate 15—E487, read-out: MIC): 0.125 µg/mL (≈ 0.133 µM)
MIC ([1]; Staphylococcus epidermidis, isolate 16—E486, read-out: MIC): < 0.0625 µg/mL
MIC ([1]; Staphylococcus epidermidis, isolate 17—E480, read-out: MIC): 0.125 µg/mL (≈ 0.133 µM)
MIC ([1]; Staphylococcus epidermidis, isolate 18—E475, read-out: MIC): 0.25 µg/mL (≈ 0.267 µM)
MIC ([1]; Staphylococcus epidermidis, isolate 19—E471, read-out: MIC): 0.125 µg/mL (≈ 0.133 µM)
MIC ([1]; Staphylococcus epidermidis, isolate 20—E458, read-out: MIC): 0.125 µg/mL (≈ 0.133 µM)
MIC ([1]; Staphylococcus epidermidis, isolate 21—E452, read-out: MIC): 0.25 µg/mL (≈ 0.267 µM)
MIC ([1]; Staphylococcus epidermidis, isolate 22—E450, read-out: MIC): 0.125 µg/mL (≈ 0.133 µM)
MIC ([1]; Staphylococcus epidermidis, isolate 23—E440, read-out: MIC): 0.25 µg/mL (≈ 0.267 µM)
MIC ([1]; Staphylococcus epidermidis, isolate 24—E446, read-out: MIC): 0.125 µg/mL (≈ 0.133 µM)
MIC ([1]; Staphylococcus epidermidis, isolate 25—E444, read-out: MIC): 0.25 µg/mL (≈ 0.267 µM)
MIC ([1]; Staphylococcus epidermidis, n=25 per group, read-out: Median MIC): 0.125 µg/mL (≈ 0.133 µM)
MIC50 ([1]; Staphylococcus epidermidis, 25 isolates, Summary of Results, read-out: MIC50): 0.125 µg/mL (≈ 0.133 µM)
MIC90 ([1]; Staphylococcus epidermidis, 25 isolates, Summary of Results, read-out: MIC90): 0.25 µg/mL (≈ 0.267 µM)
MIC ([1]; Staphylococcus epidermidis, 25 isolates, Summary of Results, read-out: Median MIC): 0.125 µg/mL (≈ 0.133 µM)
MIC50 ([1]; n=25 per group): 0.125 µg/mL (≈ 0.133 µM)
MIC90 ([1]; n=25 per group): 0.25 µg/mL (≈ 0.267 µM)
Range of MICs ([1]; n=25 per group): 0.03125 to 0.25 µg/mL
